Reference: patent publication US10160747B2, “Compounds and methods for kinase modulation, and indications therefor” (Plexxikon Inc., priority 2016, dated 2018)

Columns and labels:
Assay type in all cases: biochemical
[1] = target: T1, FLT3-ITD (Homo sapiens, UniProt P36888); experiment: FLT3-ITD recombinant enzyme kinase assay (AlphaScreen); conditions: 8 pt; read-out: FLT3_ITD 8 pt: IC50
T1 sequence (P36888 1-993): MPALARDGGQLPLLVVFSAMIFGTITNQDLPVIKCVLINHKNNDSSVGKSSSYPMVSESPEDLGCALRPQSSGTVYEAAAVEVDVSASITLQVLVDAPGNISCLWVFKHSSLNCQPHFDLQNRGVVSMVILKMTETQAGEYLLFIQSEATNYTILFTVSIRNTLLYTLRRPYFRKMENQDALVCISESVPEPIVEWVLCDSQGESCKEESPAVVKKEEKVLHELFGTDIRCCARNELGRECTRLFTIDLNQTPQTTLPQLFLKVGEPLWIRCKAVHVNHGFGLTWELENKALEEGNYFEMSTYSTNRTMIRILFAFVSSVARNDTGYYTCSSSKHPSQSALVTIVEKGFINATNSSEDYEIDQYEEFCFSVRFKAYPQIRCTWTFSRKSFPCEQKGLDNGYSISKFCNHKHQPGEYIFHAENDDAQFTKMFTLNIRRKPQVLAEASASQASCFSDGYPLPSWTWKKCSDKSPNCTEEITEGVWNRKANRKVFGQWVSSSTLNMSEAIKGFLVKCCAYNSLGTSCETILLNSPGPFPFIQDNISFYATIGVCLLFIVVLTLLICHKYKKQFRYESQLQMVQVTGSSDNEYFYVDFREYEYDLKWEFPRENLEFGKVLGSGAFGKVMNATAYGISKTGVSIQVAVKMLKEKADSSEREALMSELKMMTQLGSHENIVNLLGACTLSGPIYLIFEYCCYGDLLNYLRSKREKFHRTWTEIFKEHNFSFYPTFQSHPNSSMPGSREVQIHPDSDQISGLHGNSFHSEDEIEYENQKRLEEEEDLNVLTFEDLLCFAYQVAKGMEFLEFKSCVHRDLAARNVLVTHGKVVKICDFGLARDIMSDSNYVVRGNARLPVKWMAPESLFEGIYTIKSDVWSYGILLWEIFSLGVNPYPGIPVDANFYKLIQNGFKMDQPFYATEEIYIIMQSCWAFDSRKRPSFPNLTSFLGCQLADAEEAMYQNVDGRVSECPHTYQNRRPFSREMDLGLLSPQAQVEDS
Outline: (§1)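 Recombinant kinase phosphorylates 30 nM biotinylated poly(Glu4-Tyr) peptide; ATP is 10 μM for FLT3-ITD and FLT3-D835Y, 100 μM for c-KIT. Phosphotyrosine detected by AlphaScreen (streptavidin donor, PY20 acceptor beads, 10 μg/mL), 580 nm signal after 680 nm excitation; IC50 from signal decrease.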

[2] = target: T2, FLT3-D835Y (Homo sapiens, UniProt P36888, D835Y); experiment: FLT3-D835Y recombinant enzyme kinase assay (AlphaScreen); conditions: 8 pt, GMean
T2 construct: purchased Invitrogen PV3967
T2 sequence (P36888 27-993 D835Y): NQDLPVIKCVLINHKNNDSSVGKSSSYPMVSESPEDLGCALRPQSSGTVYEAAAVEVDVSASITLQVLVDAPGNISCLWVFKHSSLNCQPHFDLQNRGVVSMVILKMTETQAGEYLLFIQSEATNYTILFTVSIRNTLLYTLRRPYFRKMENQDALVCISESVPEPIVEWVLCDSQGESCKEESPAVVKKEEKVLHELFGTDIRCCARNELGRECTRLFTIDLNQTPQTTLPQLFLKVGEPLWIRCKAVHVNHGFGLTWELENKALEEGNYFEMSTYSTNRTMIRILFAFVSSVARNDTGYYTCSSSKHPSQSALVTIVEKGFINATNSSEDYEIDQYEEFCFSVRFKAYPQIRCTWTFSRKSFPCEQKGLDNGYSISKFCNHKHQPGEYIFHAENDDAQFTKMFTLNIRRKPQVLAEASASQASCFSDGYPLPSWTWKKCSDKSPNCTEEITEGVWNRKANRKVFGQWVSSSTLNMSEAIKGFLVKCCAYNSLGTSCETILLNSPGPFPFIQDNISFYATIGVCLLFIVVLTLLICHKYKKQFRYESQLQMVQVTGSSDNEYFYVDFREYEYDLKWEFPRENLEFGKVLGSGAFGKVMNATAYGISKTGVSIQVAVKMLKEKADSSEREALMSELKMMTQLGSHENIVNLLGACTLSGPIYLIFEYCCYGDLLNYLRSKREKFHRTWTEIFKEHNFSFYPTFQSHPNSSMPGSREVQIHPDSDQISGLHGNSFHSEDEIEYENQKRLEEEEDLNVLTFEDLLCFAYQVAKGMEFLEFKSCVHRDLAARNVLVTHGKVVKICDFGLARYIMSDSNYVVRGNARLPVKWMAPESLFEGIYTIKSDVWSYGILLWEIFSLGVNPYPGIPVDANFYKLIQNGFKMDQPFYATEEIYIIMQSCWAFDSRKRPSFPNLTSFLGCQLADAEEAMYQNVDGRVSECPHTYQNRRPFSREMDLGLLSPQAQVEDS
Outline: as §1

[3] = target: T3, c-KIT (Homo sapiens, UniProt P10721); experiment: c-KIT recombinant enzyme kinase assay (AlphaScreen); conditions: 100 ATP, 8 pt
T3 construct: purchased Millipore 14-559K
Outline: as §1

T3 sequence (P10721 26-976): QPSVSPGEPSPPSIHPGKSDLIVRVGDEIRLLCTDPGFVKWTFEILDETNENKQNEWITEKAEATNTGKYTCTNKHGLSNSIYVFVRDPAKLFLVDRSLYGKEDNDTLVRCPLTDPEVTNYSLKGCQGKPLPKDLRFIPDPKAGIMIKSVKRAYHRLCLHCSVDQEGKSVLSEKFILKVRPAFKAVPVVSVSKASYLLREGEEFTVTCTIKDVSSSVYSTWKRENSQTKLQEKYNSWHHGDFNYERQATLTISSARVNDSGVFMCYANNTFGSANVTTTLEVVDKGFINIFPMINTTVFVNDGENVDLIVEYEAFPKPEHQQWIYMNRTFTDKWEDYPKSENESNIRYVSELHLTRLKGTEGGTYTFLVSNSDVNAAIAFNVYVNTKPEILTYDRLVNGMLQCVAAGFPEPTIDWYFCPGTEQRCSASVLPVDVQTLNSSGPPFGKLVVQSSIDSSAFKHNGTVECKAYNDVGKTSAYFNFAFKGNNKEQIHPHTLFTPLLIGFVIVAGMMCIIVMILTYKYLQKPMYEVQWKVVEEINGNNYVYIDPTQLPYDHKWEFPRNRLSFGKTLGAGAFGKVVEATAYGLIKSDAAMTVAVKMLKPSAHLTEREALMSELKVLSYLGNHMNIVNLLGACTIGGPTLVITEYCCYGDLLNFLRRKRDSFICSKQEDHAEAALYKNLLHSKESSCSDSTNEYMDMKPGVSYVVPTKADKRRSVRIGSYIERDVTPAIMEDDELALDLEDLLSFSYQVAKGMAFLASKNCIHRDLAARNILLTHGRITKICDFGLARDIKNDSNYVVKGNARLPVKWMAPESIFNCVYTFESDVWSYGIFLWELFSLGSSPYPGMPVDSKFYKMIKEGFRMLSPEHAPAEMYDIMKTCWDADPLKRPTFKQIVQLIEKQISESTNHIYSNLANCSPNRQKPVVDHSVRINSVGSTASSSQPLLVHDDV

| Structure (SMILES) | IC50 [1] [µM] | IC50 [2] [µM] | IC50 [3] [µM] |
| --- | --- | --- | --- |
| Cc1ncc(NC(=O)Cc2ccc(-c3cnc4[nH]c(Cl)cc4c3)cc2F)cc1C(F)(F)F [Compound P-0067, 2-[4-(2-chloro-1H-pyrrolo[2,3-b]pyridin-5-yl)-2-fluoro-phenyl]-N-[6-methyl-5-(trifluoromethyl)-3-pyridyl]acetamide] | 0.0001 to 10 | 0.0001 to 10 | 0.0001 to 10 |
| O=C(Cc1ccc(-c2cnc3[nH]nc(C4CC4)c3c2)cc1)Nc1cncc(C(F)(F)F)c1 [Compound P-0073, 2-[4-(3-cyclopropyl-1H-pyrazolo[3,4-b]pyridin-5-yl)phenyl]-N-[5-(trifluoromethyl)-3-pyridyl]acetamide] | 0.0001 to 10 | 0.0001 to 10 | 0.0001 to 10 |
| Cc1nn(C)cc1Nc1ncc(-c2ccc(CC(=O)Nc3cnc(C)c(C(F)(F)F)c3)c(F)c2)cn1 [Compound P-0077, 2-[4-[2-[(1,3-dimethylpyrazol-4-yl)amino]pyrimidin-5-yl]-2-fluoro-phenyl]-N-[6-methyl-5-(trifluoromethyl)-3-pyridyl]acetamide] | 0.0001 to 10 | 0.0001 to 10 | 0.0001 to 10 |
| Cn1cnc(Nc2ncc(-c3cc(F)c(CC(=O)Nc4cncc(C(F)(F)F)c4)cc3F)cn2)c1 [Compound P-0078, 2-(2,5-difluoro-4-(2-((1-methyl-1H-imidazol-4-yl)amino)pyrimidin-5-yl)phenyl)-N-(5-(trifluoromethyl)pyridin-3-yl)acetamide] | 0.0001 to 10 | 0.0001 to 10 | 0.0001 to 10 |
| Cc1ncc(NC(=O)Cc2ccc(-c3cnc4[nH]cc(Cl)c4n3)cc2)cc1C(F)(F)F [Compound P-0079, 2-(4-(7-chloro-5H-pyrrolo[2,3-b]pyrazin-2-yl)phenyl)-N-(6-methyl-5-(trifluoromethyl)pyridin-3-yl)acetamide] | 0.0001 to 10 | 0.0001 to 10 | 0.0001 to 10 |
| Cn1cc(Nc2ncc(-c3ccc(CC(=O)Nc4cc(C(F)(F)F)ccn4)c(F)c3)cn2)cn1 [Compound P-0082, 2-[2-fluoro-4-[2-[(1-methylpyrazol-4-yl)amino]pyrimidin-5-yl]phenyl]-N-[4-(trifluoromethyl)-2-pyridyl]acetamide] | 0.0001 to 10 | 0.0001 to 10 | 0.0001 to 10 |
| Cn1cc(Nc2ncc(-c3ccc(CC(=O)Nc4ccnc(C(F)(F)F)c4)c(F)c3)cn2)cn1 [Compound P-0083, 2-[2-fluoro-4-[2-[(1-methylpyrazol-4-yl)amino]pyrimidin-5-yl]phenyl]-N-[2-(trifluoromethyl)-4-pyridyl]acetamide] | 0.0001 to 10 | 0.0001 to 10 | 0.0001 to 10 |
| Cn1cc(Nc2ncc(-c3ccc(CC(=O)Nc4cncc(C(F)(F)F)c4)c(F)c3)cn2)cn1 [Compound P-0084, 2-[2-fluoro-4-[2-[(1-methylpyrazol-4-yl)amino]pyrimidin-5-yl]phenyl]-N-[5-(trifluoromethyl)-3-pyridyl]acetamide] | 0.0001 to 10 | 0.0001 to 10 | 0.0001 to 10 |
| Cn1cc(Nc2ncc(-c3ccc(CC(=O)Nc4cncc(C(C)(F)F)c4)c(F)c3)cn2)cn1 [Compound P-0090, N-[5-(1,1-difluoroethyl)-3-pyridyl]-2-[2-fluoro-4-[2-[(1-methylpyrazol-4-yl)amino]pyrimidin-5-yl]phenyl]acetamide] | 0.0001 to 10 | 0.0001 to 10 | 0.0001 to 10 |

Now from value to compound:

| IC50 [1] [µM] | IC50 [2] [µM] | IC50 [3] [µM] | Structure (SMILES) |
| --- | --- | --- | --- |
| 0.0001 to 10 | 0.0001 to 10 | 0.0001 to 10 | CCC(=O)c1c[nH]c2ncc(-c3ccc(CC(=O)Nc4cncc(C(F)(F)F)c4)c(F)c3)cc12 [Compound P-0068, 2-[2-fluoro-4-(3-propanoyl-1H-pyrrolo[2,3-b]pyridin-5-yl)phenyl]-N-[5-(trifluoromethyl)-3-pyridyl]acetamide] |
| 0.0001 to 10 | 0.0001 to 10 | 0.0001 to 10 | CCC(=O)c1c[nH]c2ncc(-c3ccc(CC(=O)Nc4cnc(C)c(C(F)(F)F)c4)c(F)c3)cc12 [Compound P-0070, 2-[2-fluoro-4-(3-propanoyl-1H-pyrrolo[2,3-b]pyridin-5-yl)phenyl]-N-[6-methyl-5-(trifluoromethyl)-3-pyridyl]acetamide] |
| 0.0001 to 10 | 0.0001 to 10 | 0.0001 to 10 | O=C(Cc1ccc(-c2cnc(Nc3cnn4ccccc34)nc2)c(F)c1)Nc1cncc(C(F)(F)F)c1 [Compound P-0071, 2-[3-fluoro-4-[2-(pyrazolo[1,5-a]pyridin-3-ylamino)pyrimidin-5-yl]phenyl]-N-[5-(trifluoromethyl)-3-pyridyl]acetamide] |
| 0.0001 to 10 | 0.0001 to 10 | 0.0001 to 10 | O=C(Cc1ccc(-c2cnc3[nH]nc(C4CC4)c3c2)cc1F)Nc1cncc(C(F)(F)F)c1 [Compound P-0072, 2-[4-(3-cyclopropyl-1H-pyrazolo[3,4-b]pyridin-5-yl)-2-fluoro-phenyl]-N-[5-(trifluoromethyl)-3-pyridyl]acetamide] |
| 0.0001 to 10 | 0.0001 to 10 | 0.0001 to 10 | Cc1ncc(NC(=O)Cc2ccc(-c3cnc(Nc4cnn(C)c4C)nc3)cc2F)cc1C(F)(F)F [Compound P-0076, 2-[4-[2-[(1,5-dimethylpyrazol-4-yl)amino]pyrimidin-5-yl]-2-fluoro-phenyl]-N-[6-methyl-5-(trifluoromethyl)-3-pyridyl]acetamide] |
| 0.0001 to 10 | 0.0001 to 10 | 0.0001 to 10 | Cn1cc(Nc2ncc(-c3ccc(CC(=O)Nc4cncc(C5CC5)c4)c(F)c3)cn2)cn1 [Compound P-0081, N-(5-cyclopropyl-3-pyridyl)-2-[2-fluoro-4-[2-[(1-methylpyrazol-4-yl)amino]pyrimidin-5-yl]phenyl]acetamide] |
| 0.0001 to 10 | 0.0001 to 10 | 0.0001 to 10 | COc1cncc(NC(=O)Cc2ccc(-c3cnc(Nc4cnn(C)c4)nc3)cc2F)c1 [Compound P-0086, 2-[2-fluoro-4-[2-[(1-methylpyrazol-4-yl)amino]pyrimidin-5-yl]phenyl]-N-(5-methoxy-3-pyridyl)acetamide] |
| 0.0001 to 10 | 0.0001 to 10 | 0.0001 to 10 | Cn1cc(Nc2ncc(-c3ccc(CC(=O)NCc4ccc(C(F)(F)F)nc4)c(F)c3)cn2)cn1 [Compound P-0087, 2-[2-fluoro-4-[2-[(1-methylpyrazol-4-yl)amino]pyrimidin-5-yl]phenyl]-N-[[6-(trifluoromethyl)-3-pyridyl]methyl]acetamide] |
| 0.0001 to 10 | 0.0001 to 10 | 0.0001 to 10 | COc1ncc(NC(=O)Cc2ccc(-c3cnc(Nc4cnn(C)c4)nc3)cc2F)cc1C(F)(F)F [Compound P-0089, 2-[2-fluoro-4-[2-[(1-methylpyrazol-4-yl)amino]pyrimidin-5-yl]phenyl]-N-[6-methoxy-5-(trifluoromethyl)-3-pyridyl]acetamide] |
